*1 amine or outer side, *2 acyl side, *3 side chain or, on linkers, in order; H or OH if unused. Where a SMILES comes first, the peptide text is derived from it. Bridges are numbered along the chain shown (N, C = ends). [ ]: non-standard residue; d: D form. The star is where a group is joined. 3Aminoazetidine3carboxyl = O=C(C1(N[*:1])CN([*:3])C1)[*:2]; Pro(3R,4S-CMe2) = CC1(C)[C@@H]2[C@@H](C(=O)O)NC[C@@H]21; Phe(4-guanidino) = N=C(N)Nc1ccc(C[C@H](N)C(=O)O)cc1; X4 = O=C([C@H](Cc1cc2cc(F)ccc2[nH]1)N[*:1])[*:2]; Trp(5-F) = N[C@@H](Cc1c[nH]c2ccc(F)cc12)C(=O)O; Trp(7-aza) = N[C@@H](Cc1c[nH]c2ncccc12)C(=O)O; X7 = O=C([C@H](Cc1cc[nH]c1)N[*:1])[*:2]; Pro(4,4-F2) = O=C(O)[C@@H]1CC(F)(F)CN1; mXylylene = c1cc(C[*:1])cc(C[*:2])c1; Val(3-OH) = CC(C)(O)[C@H](N)C(=O)O; Myristoyl = CCCCCCCCCCCCCC(=O)*; Agp = N=C(N)NC[C@H](N)C(=O)O; Chg = N[C@H](C(=O)O)C1CCCCC1; Tle = CC(C)(C)[C@H](N)C(=O)O; αMeV = CC(C)[C@](C)(N)C(=O)O; αMeP = C[C@@]1(C(=O)O)CCCN1; NMeA = CN[C@@H](C)C(=O)O; Nva = CCC[C@H](N)C(=O)O; Aib = CC(C)(N)C(=O)O; Mpa = O=C(O)CCS
Each compound was assayed against T1, PCSK9 (Homo sapiens, UniProt Q8NBP7) (assay: PCSK9 Alexa FRET Standard assay (displacement of AlexaFluor647-tagged cyclic peptide Reagent A)). Details: 0.5 nM PCSK9, 20 nM AF cyclic peptide Reagent A.
T1 construct: biotin (biotinylated)
T1 sequence (Q8NBP7 153-692): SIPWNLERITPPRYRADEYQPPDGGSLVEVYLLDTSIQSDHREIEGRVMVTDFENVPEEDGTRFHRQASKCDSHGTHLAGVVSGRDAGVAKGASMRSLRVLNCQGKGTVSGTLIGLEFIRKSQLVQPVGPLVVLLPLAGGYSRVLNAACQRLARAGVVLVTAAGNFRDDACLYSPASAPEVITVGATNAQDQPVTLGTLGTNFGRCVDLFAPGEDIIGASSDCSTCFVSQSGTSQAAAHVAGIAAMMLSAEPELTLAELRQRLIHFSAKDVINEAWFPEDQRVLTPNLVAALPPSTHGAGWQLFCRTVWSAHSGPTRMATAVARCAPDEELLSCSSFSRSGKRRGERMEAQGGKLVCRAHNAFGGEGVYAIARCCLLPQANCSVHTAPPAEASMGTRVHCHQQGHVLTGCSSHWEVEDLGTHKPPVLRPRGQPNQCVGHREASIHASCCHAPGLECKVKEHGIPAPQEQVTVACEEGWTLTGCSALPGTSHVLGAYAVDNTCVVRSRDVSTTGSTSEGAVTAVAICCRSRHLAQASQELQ
Assay type: binding
Description: A solution containing 1 nM biotinylated PCSK9+2.5 nM Lance Streptavidin Europium (Strep-Eu) was made in 50 mM HEPES pH 7.4, 0.15 M NaCl, 5 mM CaCl2, 0.01% BSA, and 0.01% Surfactant P20. A separate solution containing 40 nM of the AlexaFluor tagged cyclic peptide was made in the same buffer system. An Echo was used to transfer 0.750 ul of compound to an assay plate followed by the addition of 15 ul of PCSK9+Stept-Eu and 15 ul of AF peptide. The final assay volume was 30.750 ul containing 0.5 nM PCSK9, 1.25 nM Strep-Eu, and 20 nM AF cyclic peptide. The reaction was incubated at room temperature for at least two hours prior to fluorescence measurements using an Envision Multilabel Reader. IC50 values were determined by fitting data to a sigmoidal dose-response curve using nonlinear regression. Ki was then calculated from the IC50 and the KD of AF cyclic peptide. Counts (B-counts) of the europium-labeled PCSK9 were followed to observe if compounds were […]. A fall off of the B-counts likely indicated a false positive of inhibition. Data from this procedure was reported as “A=‘numerical value’ (nanomolar)”
Work on `CC(=O)N[C@H]1CSCc2cccc(c2)CSC[C@H](C(N)=O)NC(=O)[C@H]([C@@H](C)O)NC(=O)[C@](C)(C(C)C)NC(=O)[C@H](Cc2ccc(O)cc2)NC(=O)[C@H](C)NC(=O)C2(CNC2)NC(=O)[C@H](Cc2c[nH]c3ncccc23)NC(=O)[C@H]([C@@H](C)O)NC(=O)[C@@H]2CCCN2C(=O)[C@H](Cc2ccc(O)cc2)NC(=O)[C@H](C(C)(C)C)NC1=O` [Compound 038] (Ac-C[Tle]YPT[Trp(7-aza)][3Aminoazetidine3carboxyl]AY[αMeV]T[dC]-NH2; linker 1-12 via mXylylene) yielded an IC50 of 0.001 to 0.1 µM.

Each compound was assayed against human PCSK9 / human LDLR EGFa domain interaction (Homo sapiens, UniProt Q8NBP7) (assay: TR-FRET assay of inhibition of the PCSK9-LDLR protein-protein interaction). Details: 20 nM biotinylated human PCSK9 + 20 nM his-tagged human LDLR EGFa domain, 2 hours room temperature.
Sequence of human PCSK9 / human LDLR EGFa domain interaction (Q8NBP7 153-692): as above
Sequence of human PCSK9 / human LDLR EGFa domain interaction (Q8NBP7 31-152 partner limits assumed): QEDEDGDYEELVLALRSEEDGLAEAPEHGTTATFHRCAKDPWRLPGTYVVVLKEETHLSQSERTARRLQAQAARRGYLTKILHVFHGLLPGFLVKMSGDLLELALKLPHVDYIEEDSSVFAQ
Assay type: binding
Description: A time-resolved fluorescence resonance energy (TR-FRET) assay was used to measure inhibition of the PCSK9-LDLR protein-protein interaction. Briefly, 20 nM avitag-biotinylated human PCSK9 was incubated with 20 nM his-tagged human LDLR EGFa domain in the presence of 5 nM LANCE Ulight Streptavidin (Perkin Elmer) and 5 nM europium-Anti-6×His (Perkin Elmer) for 2 hours covered at room temperature in buffer containing 50 mM HEPES, 150 mM NaCl, 5 mM CaCl2, 0.01% BSA and 0.01% Surfactant P20. Compounds were tested in dose-response and concentrations giving half-maximal inhibition calculated using a 4-parameter fit equation.
For `CCC[C@H](NC(=O)[C@H](Cc1c[nH]c2ncccc12)NC(=O)[C@H](NC(C)=O)[C@@H](C)O)C(=O)NC1CCC(=O)NCCCCCNC(=O)[C@H](Cc2ccc(O)cc2)NC(=O)[C@H](C(C)(C)C)NC(=O)CCSCc2cccc(c2)CSC[C@H](C(N)=O)NC(=O)[C@H]([C@@H](C)O)NC(=O)[C@H](C2CCCCC2)NC(=O)[C@H](Cc2ccc(O)cc2)NC1=O` (stereo partly drawn) [Compound 049], the IC50 was 1 to 12.1 µM.
`CCC[C@@H]1NC(=O)[C@H](Cc2ccc(NC(=N)N)cc2)NC(=O)[C@H]([C@@H](C)O)NC(=O)[C@H](Cc2cnc[nH]2)NC(=O)[C@H](Cc2ccc(O)cc2)NC(=O)[C@H](C(C)(C)C)NC(=O)CCSCc2cccc(c2)CSC[C@@H](C(N)=O)NC(=O)[C@H]([C@@H](C)O)NC(=O)[C@H](CCC)NC(=O)[C@H](Cc2ccc(O)cc2)NC(=O)[C@H](CCC(=O)O)NC1=O` [Compound 055] ([Mpa][Tle]YHT[Phe(4-guanidino)][Nva]EY[Nva]TC-NH2; linker 1-12 via mXylylene) was tested, and the IC50 was 1 to 12.1 µM.
For `CCC[C@@H]1NC(=O)[C@H](Cc2c[nH]c3ncccc23)NC(=O)[C@H]([C@@H](C)O)NC(=O)[C@H](CNC(=N)N)NC(=O)[C@H](Cc2c[nH]c3ccc(F)cc23)NC(=O)[C@H](C(C)(C)C)NC(=O)[C@@H](NC(=O)[C@H](Cc2ccc(NC(=N)N)cc2)NC(C)=O)CSCc2cccc(c2)CSC[C@@H](C(N)=O)NC(=O)[C@H]([C@@H](C)O)NC(=O)[C@H](CCC)NC(=O)[C@H](Cc2ccc(O)cc2)NC(=O)[C@H](CCC(=O)O)NC1=O` [Compound 093] (Ac-[Phe(4-guanidino)]C[Tle][Trp(5-F)][Agp]T[Trp(7-aza)][Nva]EY[Nva]TC-NH2; linker 2-13 via mXylylene), the IC50 was 0.1 to 1 µM.
Compound `CCC[C@@H]1NC(=O)[C@H](Cc2c[nH]c3ncccc23)NC(=O)[C@H]([C@@H](C)O)NC(=O)[C@H](CNC(=N)N)NC(=O)[C@H](Cc2cc3cc(F)ccc3[nH]2)NC(=O)[C@H](Cc2cc3cc(F)ccc3[nH]2)NC(=O)[C@@H](NC(=O)[C@H](Cc2ccc(NC(=N)N)cc2)NC(C)=O)CSCc2cccc(c2)CSC[C@@H](C(N)=O)NC(=O)[C@H]([C@@H](C)O)NC(=O)[C@H](CCC)NC(=O)[C@H](Cc2ccc(O)cc2)NC(=O)[C@H](CCC(=O)O)NC1=O` [Compound 092] (Ac-[Phe(4-guanidino)]C[X4][X4][Agp]T[Trp(7-aza)][Nva]EY[Nva]TC-NH2; linker 2-13 via mXylylene) has an IC50 of 0.1 to 1 µM.
`CCC[C@@H]1NC(=O)[C@H](Cc2c[nH]c3ncccc23)NC(=O)[C@H]([C@@H](C)O)NC(=O)[C@H](Cc2cnc[nH]2)NC(=O)[C@H](Cc2ccc(O)cc2)NC(=O)[C@H](C(C)(C)C)NC(=O)CCSCc2cccc(c2)CSC[C@H](C(N)=O)NC(=O)[C@H]([C@@H](C)O)NC(=O)[C@H](C2CCCCC2)NC(=O)[C@H](Cc2ccc(O)cc2)NC(=O)[C@H](CCC(=O)O)NC1=O` [Compound 043] ([Mpa][Tle]YHT[Trp(7-aza)][Nva]EY[Chg]T[dC]-NH2; linker 1-12 via mXylylene) was tested, and the IC50 was 0.1 to 1 µM.
With `CCC[C@@H]1NC(=O)[C@H](Cc2ccc(O)cc2)NC(=O)[C@H](CCC(=O)O)NC(=O)[C@H](CC(C)C)NC(=O)[C@H](Cc2c[nH]c3ncccc23)NC(=O)[C@H]([C@@H](C)O)NC(=O)[C@H](Cc2cnc[nH]2)NC(=O)[C@H](Cc2ccc(O)cc2)NC(=O)[C@H](C(C)(C)C)NC(=O)CCSCc2cccc(c2)CSC[C@@H](C(N)=O)NC(=O)[C@H]([C@@H](C)O)NC1=O` [Compound 078] ([Mpa][Tle]YHT[Trp(7-aza)]LEY[Nva]TC-NH2; linker 1-12 via mXylylene) the IC50 was 0.1 to 1 µM.
With `CCC[C@@H]1NC(=O)[C@H](Cc2c[nH]c3ncccc23)NC(=O)[C@H]([C@@H](C)O)NC(=O)[C@H](Cc2c[nH]cn2)NC(=O)[C@H](Cc2ccc(O)cc2)NC(=O)[C@H](C(C)(C)C)NC(=O)CCSCc2cccc(c2)CSC[C@@H](C(N)=O)NC(=O)[C@H]([C@@H](C)O)NC(=O)[C@]2(C)CCCN2C(=O)[C@H](Cc2ccc(O)cc2)NC(=O)[C@H](CCC(=O)O)NC1=O` [Compound 075] ([Mpa][Tle]YHT[Trp(7-aza)][Nva]EY[αMeP]TC-NH2; linker 1-12 via mXylylene) the IC50 was 0.1 to 1 µM.
In the case of `CCCCCCCCCCCCCC(=O)NCCCC[C@H](NC(C)=O)C(=O)N[C@@H](CCC)C(=O)N[C@H]1CSCc2cccc(c2)CSC[C@@H](C(N)=O)NC(=O)[C@H]([C@@H](C)O)NC(=O)[C@H](C2CCCCC2)NC(=O)[C@H](Cc2c[nH]c3ncccc23)NC(=O)[C@H](Cc2c[nH]cn2)NC(=O)[C@H](CCC(=O)O)NC(=O)[C@H](Cc2c[nH]c3ncccc23)NC(=O)[C@H]([C@@H](C)O)NC(=O)[C@@H]2CCCN2C(=O)[C@H](Cc2ccc(O)cc2)NC(=O)[C@H](C(C)(C)C)NC1=O` [Compound 003] (Ac-K(Myristoyl)[Nva]C[Tle]YPT[Trp(7-aza)]EH[Trp(7-aza)][Chg]TC-NH2; linker 3-14 via mXylylene), the IC50 is reported as 0.001 to 0.1 µM.
`CCC[C@@H]1NC(=O)[C@H](Cc2c[nH]c3ncccc23)NC(=O)[C@H]([C@@H](C)O)NC(=O)[C@@H]2CC(F)(F)CN2C(=O)[C@H](Cc2ccc(O)cc2)NC(=O)[C@H](C(C)(C)C)NC(=O)CCSCc2cccc(c2)CSC[C@@H](C(N)=O)NC(=O)[C@H]([C@@H](C)O)NC(=O)[C@H](CCC)NC(=O)[C@H](Cc2ccc(O)cc2)NC(=O)[C@H](CCC(=O)O)NC1=O` [Compound 004] ([Mpa][Tle]Y[Pro(4,4-F2)]T[Trp(7-aza)][Nva]EY[Nva]TC-NH2; linker 1-12 via mXylylene) gave an IC50 of 1 to 12.1 µM.
`CCC[C@@H]1NC(=O)[C@H](Cc2c[nH]c3ncccc23)NC(=O)[C@H]([C@@H](C)O)NC(=O)[C@@H]2[C@@H]3[C@H](CN2C(=O)[C@H](Cc2ccc(O)cc2)NC(=O)[C@H](C(C)(C)C)NC(=O)CCSCc2cccc(c2)CSC[C@@H](C(N)=O)NC(=O)[C@H]([C@@H](C)O)NC(=O)[C@H](CCC)NC(=O)[C@H](Cc2ccc(O)cc2)NC(=O)[C@H](CCC(=O)O)NC1=O)C3(C)C` [Compound 008] ([Mpa][Tle]Y[Pro(3R,4S-CMe2)]T[Trp(7-aza)][Nva]EY[Nva]TC-NH2; linker 1-12 via mXylylene) showed an IC50 of 0.1 to 1 µM.
With `CCC[C@@H]1NC(=O)[C@H](Cc2c[nH]c3ncccc23)NC(=O)[C@H]([C@@H](C)O)NC(=O)[C@H](Cc2cnc[nH]2)NC(=O)[C@H](Cc2ccc(O)cc2)NC(=O)[C@H](C(C)(C)C)NC(=O)CCSCc2cccc(c2)CSC[C@H](C(N)=O)NC(=O)[C@H](C(C)(C)O)NC(=O)[C@H](CCC)NC(=O)[C@H](Cc2ccc(O)cc2)NC(=O)[C@H](CCC(=O)O)NC1=O` [Compound 044] ([Mpa][Tle]YHT[Trp(7-aza)][Nva]EY[Nva][Val(3-OH)][dC]-NH2; linker 1-12 via mXylylene) the IC50 was 0.1 to 1 µM.
`CC(C)[C@]1(C)NC(=O)[C@H](Cc2ccc(O)cc2)NC(=O)[C@H](CCC(=O)O)NC(=O)C(C)(C)NC(=O)[C@H](Cc2c[nH]c3ncccc23)NC(=O)[C@H]([C@@H](C)O)NC(=O)[C@H](CCCCN)NC(=O)[C@H](Cc2ccc(O)cc2)NC(=O)[C@H](C(C)(C)C)NC(=O)CCSCc2cccc(c2)CSC[C@@H](C(N)=O)NC(=O)[C@H]([C@@H](C)O)NC1=O` [Compound 063] ([Mpa][Tle]YKT[Trp(7-aza)][Aib]EY[αMeV]TC-NH2; linker 1-12 via mXylylene) gave an IC50 of 0.1 to 1 µM.
For `CCC[C@H](NC(C)=O)C(=O)N[C@H]1CSCc2cccc(c2)CSC[C@@H](C(N)=O)NC(=O)[C@H]([C@@H](C)O)NC(=O)[C@H](C2CCCCC2)NC(=O)[C@H](Cc2c[nH]c3ncccc23)NC(=O)[C@H](Cc2cnc[nH]2)NC(=O)[C@H](CCC(=O)O)NC(=O)[C@H](Cc2c[nH]c3ncccc23)NC(=O)[C@H]([C@@H](C)O)NC(=O)[C@H](C)N(C)C(=O)[C@H](Cc2ccc(O)cc2)NC(=O)[C@H](C(C)(C)C)NC1=O` [Compound 006] (Ac-[Nva]C[Tle]Y[NMeA]T[Trp(7-aza)]EH[Trp(7-aza)][Chg]TC-NH2; linker 2-13 via mXylylene), the IC50 was 1 to 12.1 µM.
With `CCC[C@@H]1NC(=O)[C@H](Cc2c[nH]c3ncccc23)NC(=O)[C@H]([C@@H](C)O)NC(=O)[C@H](Cc2cc[nH]c2)NC(=O)[C@H](Cc2ccc(O)cc2)NC(=O)[C@H](C(C)(C)C)NC(=O)CCSCc2cccc(c2)CSC[C@@H](C(N)=O)NC(=O)[C@]2(C)CCCN2C(=O)[C@H](Cc2ccc(O)cc2)NC(=O)[C@H](CCC(=O)O)NC1=O` [Compound 076] ([Mpa][Tle]Y[X7]T[Trp(7-aza)][Nva]EY[αMeP]C-NH2; linker 1-11 via mXylylene) the IC50 was 0.1 to 1 µM.

From patent publication US11505575B2, “Cyclic polypeptides for PCSK9 inhibition” (Merck Sharp & Dohme LLC, priority 2018, dated 2022)
